pIC50: −log10 of the molar value.
Tests used:
pY705-STAT3 in PBMC = target: T1, pY705-STAT3 in PBMC (Homo sapiens, UniProt P40763); assay: MSD-pSTAT-PBMC Assay (pSTAT3, IL-6 stimulated); format: cell-based; details: PBMC, compound 3 hrs, then 10 ng/mL IL-6 for 10 min; Table 115; read-out: STAT3
T1 construct: Cryopreserved Peripheral Blood Mononuclear Cells (PBMC) are from AllCells; host or cells: cryopreserved PBMC
Source text: Cryopreserved Peripheral Blood Mononuclear Cells (PBMC) are from AllCells. Recombinant Human IL-4 and IL-6 are from Peprotech. Mouse monoclonal anti-STAT3 antibody, rabbit monoclonal anti-pY705-STAT3 antibody, rabbit monoclonal Anti-pY641-STAT6 antibody, and lysis buffer are from Cell Signaling Technology (CST). Mouse monoclonal anti-STAT6 antibody is from BioLegend. Assay plates, blocker, and anti-rabbit secondary antibody are from Meso Scale Discovery (MSD).
Cyropreserved PBMCs were thawed out and allowed to recover overnight in IMDM+10% heat-inactivated FBS prior to plating 50,000 (STAT3) or 25,000 (STAT6) cells per well in 96-well U-bottom tissue culture plates. Cells were treated with compound for 3 hrs, then stimulated with 10 ng/mL IL-6 (STAT3) or 1 ng/mL IL-4 (STAT6) for 10 min. Cells were then spun down and washed with ice-cold PBS prior to lysing the cell pellet with 1× lysis buffer (CST) with 1× HALT protease and phosphatase inhibitor cocktail (Thermo). Lysates were transferred to and incubated overnight at 4° C. with shaking in QuickPlex 96-well high bind assay plates (MSD) pre-coated overnight with 30 μL per well of 0.6 μg/mL mouse monoclonal anti-STAT3 antibody (STAT3) or 2 μg/mL mouse monoclonal anti-STAT6 antibody (STAT6) in 1× PBS, and pre-blocked for 1 hour with 3% Blocker-A (MSD). Captured protein in the assay plates were then washed and probed with 25 μL per well of […] rabbit monoclonal anti-pY705-STAT3 antibody (STAT3) or 0.18 μg/ml rabbit monoclonal Anti-pY641-STAT6 antibody (STAT6) in 1% Blocker-A for 1 hour at room temperature with shaking, then washed and probed with 25 ul per well of 1 ug/ml Sulfo-TAG Labeled Goat Anti-Rabbit Antibody (MSD) in 1% Blocker-A for 1 hour at room temperature with shaking. Assay plates were then washed and 150 μL of 1× Read Buffer-T (MSD) was added to each well prior to reading on an SQ120 MSD Plate Reader. Assay signal from each sample was subtracted by the signal from unstimulated control wells and normalized to DMSO control wells. IC50 values were calculated using Graph Pad Prism Dose-Response Nonlinear Regression with variable slope. For both pSTAT3 and pSTAT6 A=≤100 nM; B 100-1000 nM; C=>1000-3000 nM; D=>3 μM; and NT=Not Tested.

[1] = target: T2, Recombinant STAT3 protein (STAT3 (G127-I722)) (Homo sapiens, UniProt P40763); assay: STAT3 Fluorescence Polarization (FP) Assay; format: binding; details: STAT3 (G127-I722) 25 nM, probe 5-FAM-GpYLPQTV-NH2 2 nM, 45-minute incubation; read-out: STAT3 (FP assay IC50 class)
T2 construct: Recombinant STAT3 protein (STAT3 (G127-I722))
T2 sequence (P40763 127-722): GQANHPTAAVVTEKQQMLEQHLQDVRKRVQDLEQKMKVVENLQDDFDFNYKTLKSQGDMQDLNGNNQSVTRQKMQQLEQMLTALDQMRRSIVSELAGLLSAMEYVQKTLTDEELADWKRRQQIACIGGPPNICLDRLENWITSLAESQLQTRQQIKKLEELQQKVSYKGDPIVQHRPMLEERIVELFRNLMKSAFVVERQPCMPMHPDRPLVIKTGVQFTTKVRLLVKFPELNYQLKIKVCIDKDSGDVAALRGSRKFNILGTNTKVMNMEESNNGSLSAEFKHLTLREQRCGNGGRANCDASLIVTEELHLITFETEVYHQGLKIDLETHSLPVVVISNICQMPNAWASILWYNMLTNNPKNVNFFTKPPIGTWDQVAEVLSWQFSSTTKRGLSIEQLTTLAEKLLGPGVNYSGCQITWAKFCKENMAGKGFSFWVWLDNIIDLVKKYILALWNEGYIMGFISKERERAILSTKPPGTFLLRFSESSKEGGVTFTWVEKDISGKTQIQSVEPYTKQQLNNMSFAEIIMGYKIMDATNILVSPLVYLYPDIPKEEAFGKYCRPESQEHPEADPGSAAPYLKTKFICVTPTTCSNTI
Method in brief: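 Read-out is fluorescence polarization (mP) after 45 min at room temperature, with IC50 fitted by nonlinear regression against log compound concentration. Mixture: 25 nM STAT3 (G127-I722), 2 nM 5-FAM-GpYLPQTV-NH2 phosphopeptide, 10 mM HEPES pH 7.4 buffer, 1% DMSO.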

[2] = target: T3, Recombinant STAT6 protein (STAT6 (W123-T658)) (Homo sapiens, UniProt P42226); assay: STAT6 Fluorescence Polarization (FP) Assay; format: binding; details: STAT6 (W123-T658) 250 nM, probe 5-FAM-Ap[…]-NH2 2 nM, 45-minute incubation; read-out: STAT6 (FP assay IC50 class)
T3 construct: Recombinant STAT6 protein (STAT6 (W123-T658))
T3 sequence (P42226 123-658): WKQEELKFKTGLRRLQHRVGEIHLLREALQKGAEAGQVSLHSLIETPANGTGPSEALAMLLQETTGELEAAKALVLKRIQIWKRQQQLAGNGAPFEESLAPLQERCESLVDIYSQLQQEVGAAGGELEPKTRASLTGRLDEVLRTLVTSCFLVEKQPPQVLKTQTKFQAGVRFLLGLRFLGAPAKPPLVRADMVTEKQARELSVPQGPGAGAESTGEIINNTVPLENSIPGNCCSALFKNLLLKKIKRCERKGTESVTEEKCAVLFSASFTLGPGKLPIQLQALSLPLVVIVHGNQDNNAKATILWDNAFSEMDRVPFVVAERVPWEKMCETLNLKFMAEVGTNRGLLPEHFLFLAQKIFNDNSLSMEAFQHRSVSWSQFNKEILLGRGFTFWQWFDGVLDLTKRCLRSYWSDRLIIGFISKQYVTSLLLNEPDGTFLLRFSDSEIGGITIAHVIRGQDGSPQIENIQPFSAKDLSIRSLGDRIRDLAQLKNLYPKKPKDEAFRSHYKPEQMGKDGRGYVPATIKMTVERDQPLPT
Method in brief: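 Recombinant STAT6 (W123-T658) at 250 nM mixed with 2 nM 5-FAM phosphotyrosine peptide probe in HEPES pH 7.4 buffer with DTT, 1% DMSO final, added to serially diluted compounds. FP (mP) read after 45 min at room temperature; IC50 by nonlinear regression vs log concentration.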

T1 sequence (P40763 whole entry): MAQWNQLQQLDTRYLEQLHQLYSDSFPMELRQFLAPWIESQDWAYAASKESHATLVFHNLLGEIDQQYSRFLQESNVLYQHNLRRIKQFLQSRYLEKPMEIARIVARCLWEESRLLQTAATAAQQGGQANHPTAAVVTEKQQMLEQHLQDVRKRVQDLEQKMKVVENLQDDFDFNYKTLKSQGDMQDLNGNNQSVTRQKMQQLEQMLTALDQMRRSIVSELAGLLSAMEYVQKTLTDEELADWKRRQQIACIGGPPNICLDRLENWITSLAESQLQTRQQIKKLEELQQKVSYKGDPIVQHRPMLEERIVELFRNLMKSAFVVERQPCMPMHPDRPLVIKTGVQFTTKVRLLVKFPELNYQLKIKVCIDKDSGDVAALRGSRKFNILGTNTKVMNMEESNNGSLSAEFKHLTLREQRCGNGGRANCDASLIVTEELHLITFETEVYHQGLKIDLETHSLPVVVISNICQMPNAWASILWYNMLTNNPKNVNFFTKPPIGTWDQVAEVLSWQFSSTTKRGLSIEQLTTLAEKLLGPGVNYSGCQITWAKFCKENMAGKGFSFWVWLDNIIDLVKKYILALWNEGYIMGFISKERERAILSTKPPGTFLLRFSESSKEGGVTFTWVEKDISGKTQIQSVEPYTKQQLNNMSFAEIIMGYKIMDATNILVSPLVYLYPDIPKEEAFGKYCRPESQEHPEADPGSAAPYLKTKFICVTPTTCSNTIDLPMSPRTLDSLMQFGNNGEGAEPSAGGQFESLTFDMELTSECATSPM

Row | pIC50 [1] | pIC50 [2] | SMILES | pIC50 (pY705-STAT3 in PBMC)
1 | 5.00 to 6.00 | 5.52 to 6.52 | O=C(N[C@H]1CCCC[C@H]2CC[C@@H](C(=O)N3CCC(c4cccnc4)C3)N2C1=O)c1ccc2ccc(C(F)P(=O)(O)O)cc2c1 (stereo partly drawn) [Compound 892, (fluoro(7-(((3S,6S,10aS)-5-oxo-3-(3-(pyridin-3-yl)pyrrolidine-1-carbonyl)decahydropyrrolo[1,2-a]azocin-6-yl)carbamoyl)naphthalen-2-yl)methyl) phosphonic acid] | 
2 | > 7.00 | 4.52 to 5.52 | CCOc1ccncc1C1CN(C(=O)[C@@H]2CC[C@@H]3CCC[C@H](NC(=O)c4cc5cc(C(F)P(=O)(O)O)ccc5s4)C(=O)N32)C1 (stereo partly drawn) [Compound 597, ((2-(((3S,6S,9aS)-3-(3-(4-ethoxypyridin-3-yl)azetidine-1-carbonyl)-5-oxooctahydro-1H-pyrrolo[1,2-a]azepin-6-yl)carbamoyl)benzo [b]thiophen-5-yl)fluoromethyl) phosphonic acid] | 
3 | > 7.00 | 5.52 to 6.52 | CC[C@H]1CC[C@H](NC(=O)c2cc3cc([C@H](F)P(=O)(O)O)ccc3s2)C(=O)N2[C@H](CC[C@H]2C(=O)N2CC(c3cnccc3N3CCC3)C2)C1 [Compound 938, ((R)-(2-(((3S,6S,9S,10aR)-3-(3-(4-(azetidin-1-yl)pyridin-3-yl)azetidine-1-carbonyl)-9-ethyl-5-oxodecahydropyrrolo [1,2-a]azocin-6-yl)carbamoyl)benzo [b]thiophen-5-yl)fluoromethyl) phosphonic acid] | 
4 | 5.00 to 6.00 | 4.52 to 5.52 | CC1(c2ccccn2)CN(C(=O)[C@@H]2CC[C@@H]3CCC[C@H](NC(=O)c4cc5cc(CP(=O)(O)O)ccc5s4)C(=O)N32)C1 [Compound 548, ((2-(((3S,6S,9aS)-3-(3-methyl-3-(pyridin-2-yl)azetidine-1-carbonyl)-5-oxooctahydro-1H-pyrrolo[1,2-a]azepin-6-yl)carbamoyl)benzo[b]thiophen-5-yl)methyl)phosphonic acid] | 
5 | 6.00 to 7.00 | 4.52 to 5.52 | O=C(N[C@H]1CCC[C@H]2CC[C@@H](C(=O)N3CC(c4cscc4F)C3)N2C1=O)c1cc2cc(C(F)P(=O)(O)O)ccc2s1 (stereo partly drawn) [Compound 757, (fluoro(2-(((3S,6S,9aS)-3-(3-(4-fluorothiophen-3-yl)azetidine-1-carbonyl)-5-oxooctahydro-1H-pyrrolo[1,2-a]azepin-6-yl)carbamoyl)benzo [b]thiophen-5-yl)methyl) phosphonic acid] | 
6 | > 7.00 | 4.52 to 5.52 | COCCN(C)c1ccncc1C1CN(C(=O)[C@@H]2CC[C@@H]3CCC[C@H](NC(=O)c4cc5cc([C@@H](F)P(=O)(O)O)ccc5s4)C(=O)N32)C1 [Compound 855, ((S)-fluoro(2-(((3S,6S,9aS)-3-(3-(4-((2-methoxyethyl) (methyl)amino)pyridin-3-yl)azetidine-1-carbonyl)-5-oxooctahydro-1H-pyrrolo[1,2-a]azepin-6-yl)carbamoyl)benzo [b]thiophen-5-yl)methyl) phosphonic acid] | 
7 | > 7.00 | 4.52 to 5.52 | O=C(N[C@H]1CCC[C@H]2CC[C@@H](C(=O)N3CC(c4cncnc4N4CCOCC4)C3)N2C1=O)c1cc2cc([C@H](F)P(=O)(O)O)ccc2s1 (single isomer, unassigned) [Compound 857] | 

Further lines, the compound ahead of its results:

Row | SMILES | pIC50 [1] | pIC50 [2] | pIC50 (pY705-STAT3 in PBMC)
8 | CCCOC(=O)[C@H](C)NP(=O)(Cc1ccc2sc(C(=O)N[C@H]3CCC[C@H]4CC[C@@H](C(=O)N5CC(c6c(F)ccnc6OC)C5)N4C3=O)cc2c1)Oc1ccccc1 (stereo partly drawn) [Compound 275, propyl (((2-(((3S,6S,9aS)-3-(3-(4-fluoro-2-methoxypyridin-3-yl)azetidine-1-carbonyl)-5-oxooctahydro-1H-pyrrolo[1,2-a]azepin-6-yl)carbamoyl)benzo [b]thiophen-5-yl)methyl)(phenoxy)phosphoryl)-L-alaninate] |  |  | < 5.52
9 | CCCOC(=O)[C@H](C)NP(=O)(Oc1ccccc1)C(C)c1ccc2sc(C(=O)N[C@H]3CCC[C@H]4CC[C@@H](C(=O)N5CC(c6cccnc6)C5)N4C3=O)cc2c1 (stereo partly drawn) [Compound 435, propyl ((1-(2-(((3S,6S,9aS)-5-oxo-3-(3-(pyridin-3-yl)azetidine-1-carbonyl)octahydro-1H-pyrrolo[1,2-a]azepin-6-yl)carbamoyl)benzo [b]thiophen-5-yl)ethyl)(phenoxy)phosphoryl)-L-alaninate] |  |  | 6.00 to 7.00
10 | CCCOC(=O)[C@H](C)N[P@@](=O)(Oc1ccccc1)[C@H](F)c1ccc2sc(C(=O)N[C@H]3CCC[C@H]4CC[C@@H](C(=O)N5CC(c6cccnc6)C5)N4C3=O)cc2c1 [Compound 464] |  |  | > 7.00
11 | CCCOC(=O)[C@H](C)NP(=O)(Cc1ccc2sc(C(=O)N[C@H]3CCC[C@H]4CC[C@@H](C(=O)N5CC(c6cnccc6N6CCC6)C5)N4C3=O)cc2c1)Oc1ccccc1 (stereo partly drawn) [Compound 1031, propyl (((2-(((3S,6S,9aS)-3-(3-(4-(azetidin-1-yl)pyridin-3-yl)azetidine-1-carbonyl)-5-oxooctahydro-1H-pyrrolo[1,2-a]azepin-6-yl)carbamoyl)benzo [b]thiophen-5-yl)methyl)(phenoxy)phosphoryl)-L-alaninate] |  |  | > 7.00
12 | CCCOC(=O)[C@H](COC)NP(=O)(Cc1ccc2sc(C(=O)N[C@H]3CCC[C@H]4CC[C@@H](C(=O)N5CC(c6cccnc6)C5)N4C3=O)cc2c1)Oc1ccccc1 (stereo partly drawn) [Compound 430, propyl O-methyl-N-(((2-(((3S,6S,9aS)-5-oxo-3-(3-(pyridin-3-yl)azetidine-1-carbonyl)octahydro-1H-pyrrolo[1,2-a]azepin-6-yl)carbamoyl)benzo [b]thiophen-5-yl)methyl)(phenoxy)phosphoryl)-L-serinate] |  |  | 6.00 to 7.00
13 | CC(C)CC(=O)SCCOP(=O)(OCOC(=O)OC1CCOCC1)C(F)(F)c1ccc2sc(C(=O)N[C@H]3CCC[C@H]4CC[C@@H](C(=O)N5CC(c6ncccn6)C5)N4C3=O)cc2c1 (stereo partly drawn) [Compound 1105, S-(2-(((difluoro(2-(((3S,6S,9aS)-5-oxo-3-(3-(pyrimidin-2-yl)azetidine-1-carbonyl)octahydro-1H-pyrrolo[1,2-a]azepin-6-yl)carbamoyl)benzo [b]thiophen-5-yl)methyl)(((((tetra-hydro-2H-pyran-4-yl)oxy)carbonyl)oxy)methoxy)phosphoryl)oxy)ethyl) 3-methylbutanethioate] |  |  | > 7.00
14 | O=C(N[C@H]1CCCC[C@H]2CC[C@@H](C(=O)NC3CN(C(=O)OCc4ccccc4)C3)N2C1=O)c1cc2cc(C(F)P(=O)(O)O)ccc2s1 (stereo partly drawn) [Compound 524, ((2-(((3S,6S,10aS)-3-((1-((benzyloxy)carbonyl)azetidin-3-yl)carbamoyl)-5-oxodecahydropyrrolo[1,2-a]azocin-6-yl)carbamoyl)benzo[b]thiophen-5-yl)fluoromethyl)phosphonic acid] | 6.00 to 7.00 | 5.52 to 6.52 | 

From patent US20250215029A1 (Recludix Pharma, Inc., priority 2022, published 2025)
